Laboratory results published in patent publication US20150307938A1, “METHOD TO IDENTIFY A NOVEL CLASS OF IMMUNOLOGIC ADJUVANTS” (Lancell, L.L.C., priority 2011, published 2015).
Entries after “also recorded” stand apart in the source; their conditions may differ.

What was measured:
dendritic cells = experiment: 48 hr response of wild-type and Caspase-1−/− mice to topical FITC+DBP (flow cytometry of draining lymph node); type: in vivo; details: vs wild-type
Method: We also tested the relevance of a second dendritic cell activation system that intersects with TLR, the NALP inflammasome (reviewed in Franchi, L. et al. 2009 “The inflammasome: a Caspase-1-activation platform that regulates immune responses and disease pathogenesis” Nature Immunology 10:241-247).
Mice were treated topically on the shaved abdominal skin with FITC dissolved in acetone (5 mg/ml) combined with an equal volume of DBP. Two days later, the skin draining inguinal lymph node cells were stained for immunofluorescent flow cytometry using monoclonal antibodies specific for CD19, CD11c, CD40, I-Ab, CD80, and CD86 obtained from BD Pharmingen, and detected using a Becton Dickenson FACSCalibur followed by analysis of the data using FlowJo software.

ear skin = experiment: Cutaneous lymphoid stress response gene expression after topical DBP on ear skin; type: in vivo; details: ear skin of C57B1/6 mice
Excerpt: (§1) The cutaneous lymphoid stress response bears a strong resemblance to the effects of topical DBP. DBP is required for the induction of contact hypersensitivity to FITC in mice, a form of allergic response. Topical DBP induces the migration of Langerhans cells from the epidermis to draining lymph nodes. And, topical DBP acts as an adjuvant for antigens injected into the skin, including endotoxin-free OVA. One might expect, therefore, that topical DBP would cause the same effects as tape stripping or occlusive skin patch immunization. To our surprise, none of the effects that characterize the DETC-dependent cutaneous lymphoid stress-surveillance response are found in the response to DBP.

OVA = experiment: Antibody response to endotoxin-free OVA injected intradermally followed by topical DBP; type: in vivo, B6 mice; details: endotoxin-free OVA i.d. followed by topical DBP
Excerpt: as §1

skin = experiment: Skin histology after multiple topical applications of DBP; details: multiple topical doses
skin dendritic cells = experiment: Flow cytometric analysis of Ahr−/− response to topical DBP

## CCCCOC(=O)c1ccccc1C(=O)OCCCC [DBP, dibutylphthalate]
Dendritic cells
  dendritic cell response in Casp−/− mice: undiminished
Ear skin
  expression of H60a: no statistically significant increase
  expression of Il-13: no statistically significant increase
  expression of Il-25: no statistically significant increase
  expression of KLrk1 (encodes NKG2D): no statistically significant increase
  expression of Rae-1: no statistically significant increase; also recorded: actually diminished
OVA
  antigen-specific IgE: undetectable
  antigen-specific IgG1 antibodies: significantly elevated
  antigen-specific IgG2b antibodies: significantly elevated
  antigen-specific IgG2c antibodies: significantly elevated
skin
  histologic evidence of inflammation in the skin: no histologic evidence of inflammation
Skin dendritic cells; Ahr−/− mice
  E/C: 6.375
Skin dendritic cells; B6 mice
  E/C: 5.97
Skin dendritic cells; topical application
  skin dendritic cell response in AhR−/− mice: no evidence for any impairment
